Reference: patent publication EP0596929B1, “AMIDE DERIVATIVES OF ANTIBIOTIC A 40926” (GRUPPO LEPETIT S.p.A., priority 1991, dated 1993)

System: highly glycopeptide-resistant enterococci
Conditions: summary of Table III

## CN[C@H](CC(C)C)C(=O)N[C@H]1C(=O)N[C@@H](CC(N)=O)C(=O)N[C@H]2C(=O)N[C@H]3C(=O)N[C@H](C(=O)N[C@H](C(=O)O)c4cc(O)cc(O)c4-c4cc3ccc4O)[C@H](O)c3ccc(c(Cl)c3)Oc3cc2cc(c3O[C@@H]2O[C@H](CO)[C@@H](O)[C@H](O)[C@H]2O[C@H]2C[C@](C)(N)[C@H](O)[C@H](C)O2)Oc2ccc(cc2Cl)[C@H]1O [vancomycin]
  in vitro activity against highly glycopeptide-resistant enterococci (in words): highly resistant

## Teicoplanin
  in vitro activity against highly glycopeptide-resistant enterococci (in words): highly resistant
